Tests used:
[1] = test system: renal cell carcinoma cell line (ACHN); test: Cell survival assay (MTT assay), ACHN; format: cell-based, human; settings: 10 mM, 25 mM and 50 mM in MEM, 24 hours, compared with Control (p<0.05), FIG. 1
Experimental: (§1) The antitumor effect of rare sugars was analyzed using the three human renal cell carcinoma cell lines (ACHN, Caki-I, and Caki-II) used in Example 1. As the rare sugars, used were the following ten rare sugars: L-allulose, D-allulose, D-allose, L-fructose, D-mannose, L-sorbose, D-tagatose, D-galactose, D-sorbose, and L-tagatose, while as monosaccharides not belonging to rare sugars, D-glucose and D-fructose were used.
(§2) As a medium, a minimum essential medium (MEM) containing 1000 mg/l of D-glucose was used. By adjusting it to contain 10 mM, 25 mM, and 50 mM of each of the monosaccharides or rare sugars and using thus-obtained MEMs [shown by (10), (25), and (50) in the drawing], an antitumor effect of the rare sugars was evaluated.
(§3) A 5.0×10^4 cells/ml of each of cell suspensions was formed using MEM. The resulting suspension (0.1 ml/well) was distributed in a 96-well plate, followed by culturing for 24 hours. […]
(§4) The MTT assay is one of test methods for measuring survival and makes use of a color reaction of an insoluble formazan dye (blue) caused by the reduction of MTT which is a tetrazolium salt. […] The cell viability is determined by measuring this color reaction with a microplate reader.

[2] = test system: renal cell carcinoma cell line (Caki-II); test: Cell survival assay (MTT assay), Caki-II; format: cell-based, human; settings: 10 mM, 25 mM and 50 mM in MEM, 24 hours, compared with Control (p<0.05), FIG. 3
Experimental: as §1, §2, §3, §4

[3] = test system: Caki-I tumor; test: D-allose concentration in tumor after intraperitoneal injection, Caki-I xenograft mouse model; format: in vivo; settings: Caki-I xenograft mice, 400 mg/kg intraperitoneal
Experimental: The experiment of the present example used two human renal cell carcinoma cell lines (Caki-I and ACHN). Each cell was cultured under the wet environment of 37° C. and 5% CO2 by using a RPMI-1640 culture solution (2000 mg D-glucose/L) containing a 10% fetal calf serum, a HEPES buffer, and penicillin-streptomycin.
With respect to a renal cell carcinoma xenograft mouse model, a 1.0×10^5 cells/ml of a cell suspension was obtained by adjusting the cultured cells with a MEM culture solution and then 0.1 ml of the resulting suspension was injected into the femoral subcutaneous tissue of Female athymic nude mice (BALB/c-nu/nu, 6-week-old). After checking that the tumor volume was 200 mm^3 or more one week after the injection, the mice were provided for the experiment thereafter.
A 400 mg/kg/0.4 mL solution of rare sugar D-allose was prepared using physiological saline and was intraperitoneally injected into the xenograft mouse models of two human renal cell carcinoma cell lines (Caki-I and ACHN) through a 27 G needle. A tumor was enucleated from the mouse before […] administration and 1 hour, 2 hours, and 4 hours after the administration. […] A monosaccharide in the supernatant thus obtained was labeled with ABEE (4-aminobenzoic acid ethyl ester) and the quantitative analysis of D-allose was performed by HPLC (high performance liquid chromatography). […]

O=C[C@H](O)[C@H](O)[C@H](O)[C@H](O)CO [D-allose]
Viability [1]: significantly reduced the viability
Viability [2]: significantly reduced the viability
D-allose in tumor one hour after intraperitoneal injection ([3]; HPLC, FIG. 4): detected
Time after injection at which D-allose concentration in tumor became the highest ([3]; sampled 1, 2, 4 hours): one

— US20250249025A1, “DRUG DELIVERY CARRIER UTILIZING PROPERTY OF D-ALLOSE BEING UPTAKEN BY CANCER CELL, DRUG DELIVERY METHOD, AND COMPOSITION FOR TREATING RENAL CELL CARCINOMA” (NATIONAL UNIVERSITY CORPORATION KAGAWA UNIVERSITY, priority 2019, published 2025)
